How the values were obtained:
[1] = biological target: Protein kinase C iota type (Homo sapiens) (UniProt P41743); assay: Inhibition of human PKCiota assessed as residual activity at 1 uM using 3xChocktide-PKC(19-31) as substrate in presence of 33P-ATP by ProQinase assay relative to control
[2] = biological target: TGF-beta receptor type-2 (Homo sapiens) (UniProt P37173); assay: Inhibition of human TGFBR2 assessed as residual activity at 1 uM using RB-S6P as substrate in presence of 33P-ATP by ProQinase assay relative to control
TGF-beta receptor type-2 (Homo sapiens), sequence (P37173 whole entry): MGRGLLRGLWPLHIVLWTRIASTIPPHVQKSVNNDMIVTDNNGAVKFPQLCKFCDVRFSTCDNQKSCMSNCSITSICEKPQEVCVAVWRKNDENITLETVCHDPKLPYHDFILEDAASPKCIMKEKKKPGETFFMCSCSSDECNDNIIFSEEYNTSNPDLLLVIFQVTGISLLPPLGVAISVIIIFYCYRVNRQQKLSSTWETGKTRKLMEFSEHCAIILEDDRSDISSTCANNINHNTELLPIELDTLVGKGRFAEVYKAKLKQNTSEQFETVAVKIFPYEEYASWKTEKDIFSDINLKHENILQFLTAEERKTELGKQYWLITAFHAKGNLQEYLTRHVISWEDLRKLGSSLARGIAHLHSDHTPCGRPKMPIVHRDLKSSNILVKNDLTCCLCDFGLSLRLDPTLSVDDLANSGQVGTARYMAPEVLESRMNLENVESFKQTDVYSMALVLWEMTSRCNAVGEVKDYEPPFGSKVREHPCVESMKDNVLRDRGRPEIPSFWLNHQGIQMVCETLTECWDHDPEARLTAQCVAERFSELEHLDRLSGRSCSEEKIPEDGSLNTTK

[3] = biological target: Serine/threonine-protein kinase pim-1 (Homo sapiens) (UniProt P11309); assay: Inhibition of human PIM1 assessed as residual activity at 1 uM using RBER-GSK3(14-27) as substrate in presence of 33P-ATP by ProQinase assay relative to control
Serine/threonine-protein kinase pim-1 (Homo sapiens), sequence (P11309 whole entry, looked up): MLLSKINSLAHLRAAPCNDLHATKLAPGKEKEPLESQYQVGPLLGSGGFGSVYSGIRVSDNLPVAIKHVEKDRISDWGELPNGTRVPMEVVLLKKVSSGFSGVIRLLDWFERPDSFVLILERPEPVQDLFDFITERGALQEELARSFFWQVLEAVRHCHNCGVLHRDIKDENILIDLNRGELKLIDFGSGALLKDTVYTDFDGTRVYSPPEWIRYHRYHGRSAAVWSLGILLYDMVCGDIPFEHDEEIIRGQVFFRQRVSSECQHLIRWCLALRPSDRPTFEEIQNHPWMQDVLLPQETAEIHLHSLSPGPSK

[4] = biological target: Dual specificity mitogen-activated protein kinase kinase 1 (Homo sapiens) (UniProt Q02750); assay: Inhibition of MEK1 (unknown origin) assessed as remaining activity at 1 uM by Kinome scan method relative to control
Dual specificity mitogen-activated protein kinase kinase 1 (Homo sapiens), sequence (Q02750 whole entry): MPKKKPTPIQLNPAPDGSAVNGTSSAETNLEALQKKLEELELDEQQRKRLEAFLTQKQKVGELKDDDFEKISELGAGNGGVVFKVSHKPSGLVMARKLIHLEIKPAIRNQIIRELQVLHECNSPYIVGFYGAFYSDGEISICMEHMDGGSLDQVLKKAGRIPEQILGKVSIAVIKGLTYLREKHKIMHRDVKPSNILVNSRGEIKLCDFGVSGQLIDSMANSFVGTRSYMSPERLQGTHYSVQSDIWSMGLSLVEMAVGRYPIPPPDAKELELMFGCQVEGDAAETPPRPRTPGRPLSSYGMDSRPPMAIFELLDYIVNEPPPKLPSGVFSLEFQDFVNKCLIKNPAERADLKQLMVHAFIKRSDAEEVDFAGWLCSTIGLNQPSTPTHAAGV

[5] = biological target: RAC-beta serine/threonine-protein kinase (Homo sapiens) (UniProt P31751); assay: Inhibition of AKT2 (unknown origin) assessed as remaining activity at 1 uM by Kinome scan method relative to control
RAC-beta serine/threonine-protein kinase (Homo sapiens), sequence (P31751 whole entry): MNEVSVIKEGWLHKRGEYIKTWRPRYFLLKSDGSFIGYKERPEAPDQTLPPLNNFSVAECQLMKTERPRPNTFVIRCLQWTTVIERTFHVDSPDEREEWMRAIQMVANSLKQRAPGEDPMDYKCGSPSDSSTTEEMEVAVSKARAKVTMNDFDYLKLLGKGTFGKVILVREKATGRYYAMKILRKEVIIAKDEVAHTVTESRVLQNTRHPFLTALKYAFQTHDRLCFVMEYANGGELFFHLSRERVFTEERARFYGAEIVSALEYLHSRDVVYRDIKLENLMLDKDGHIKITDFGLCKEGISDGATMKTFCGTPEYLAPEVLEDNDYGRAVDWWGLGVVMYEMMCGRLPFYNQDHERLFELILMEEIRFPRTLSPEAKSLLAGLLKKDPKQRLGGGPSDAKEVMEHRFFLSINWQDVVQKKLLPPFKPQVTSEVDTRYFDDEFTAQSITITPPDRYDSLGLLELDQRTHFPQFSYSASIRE

[6] = tested on: Hepatocyte growth factor receptor (Homo sapiens), P08581 [D1228N]; assay: Inhibition of human MET D1228N mutant assessed as residual activity at 1 uM using poly(Ala,Glu,Lys,Tyr)6:2:5:1 as substrate in presence of 33P-ATP by ProQinase assay relative to control
[7] = biological target: Rho-associated protein kinase 2 (Homo sapiens) (UniProt O75116); assay: Inhibition of ROCK2 (unknown origin) assessed as remaining activity at 1 uM by Kinome scan method relative to control
[8] = biological target: Platelet-derived growth factor receptor alpha (Homo sapiens) (UniProt P16234); assay: Inhibition of human PDGFRalpha assessed as residual activity at 1 uM using Poly(Ala,Glu,Lys,Tyr)6:2:5:1 as substrate in presence of 33P-ATP by ProQinase assay relative to control
Platelet-derived growth factor receptor alpha (Homo sapiens), sequence (P16234 whole entry): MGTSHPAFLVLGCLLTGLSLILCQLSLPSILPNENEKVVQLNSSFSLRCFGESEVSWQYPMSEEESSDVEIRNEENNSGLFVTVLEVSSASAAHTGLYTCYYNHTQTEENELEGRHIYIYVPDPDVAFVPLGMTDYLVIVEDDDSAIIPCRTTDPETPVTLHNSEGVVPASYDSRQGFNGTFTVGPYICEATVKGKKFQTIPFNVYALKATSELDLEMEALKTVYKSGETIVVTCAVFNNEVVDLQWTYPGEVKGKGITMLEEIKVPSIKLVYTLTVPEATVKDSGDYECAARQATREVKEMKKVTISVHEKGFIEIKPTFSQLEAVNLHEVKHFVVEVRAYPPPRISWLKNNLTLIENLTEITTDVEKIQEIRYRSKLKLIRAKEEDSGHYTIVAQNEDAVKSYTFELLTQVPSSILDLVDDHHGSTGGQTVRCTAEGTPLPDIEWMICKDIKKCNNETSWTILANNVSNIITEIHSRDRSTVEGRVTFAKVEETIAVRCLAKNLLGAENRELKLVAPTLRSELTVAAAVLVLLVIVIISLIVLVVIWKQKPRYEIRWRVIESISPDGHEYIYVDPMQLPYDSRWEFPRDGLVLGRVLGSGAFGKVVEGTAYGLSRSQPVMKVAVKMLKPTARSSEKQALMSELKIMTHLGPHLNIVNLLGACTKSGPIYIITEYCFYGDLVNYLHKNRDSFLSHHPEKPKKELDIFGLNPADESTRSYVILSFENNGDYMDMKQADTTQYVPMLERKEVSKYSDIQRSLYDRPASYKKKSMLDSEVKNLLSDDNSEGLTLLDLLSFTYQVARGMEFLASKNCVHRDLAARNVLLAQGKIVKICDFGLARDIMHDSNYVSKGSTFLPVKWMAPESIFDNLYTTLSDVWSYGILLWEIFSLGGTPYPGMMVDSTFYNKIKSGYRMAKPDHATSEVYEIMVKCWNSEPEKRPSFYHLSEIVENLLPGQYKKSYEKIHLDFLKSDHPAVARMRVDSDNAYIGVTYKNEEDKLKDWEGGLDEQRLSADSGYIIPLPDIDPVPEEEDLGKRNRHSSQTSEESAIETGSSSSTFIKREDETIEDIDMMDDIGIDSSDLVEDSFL

[9] = biological target: STE20/SPS1-related proline-alanine-rich protein kinase (Homo sapiens) (UniProt Q9UEW8); assay: Inhibition of human STK39 assessed as residual activity at 1 uM using RBER-CDC25tide as substrate in presence of 33P-ATP by ProQinase assay relative to control
[10] = biological target: Serine/threonine-protein kinase Chk2 (Homo sapiens) (UniProt O96017); assay: Inhibition of human CHK2 assessed as residual activity at 1 uM using bio-4xCHKT as substrate in presence of 33P-ATP by ProQinase assay relative to control
Serine/threonine-protein kinase Chk2 (Homo sapiens), sequence (O96017 whole entry): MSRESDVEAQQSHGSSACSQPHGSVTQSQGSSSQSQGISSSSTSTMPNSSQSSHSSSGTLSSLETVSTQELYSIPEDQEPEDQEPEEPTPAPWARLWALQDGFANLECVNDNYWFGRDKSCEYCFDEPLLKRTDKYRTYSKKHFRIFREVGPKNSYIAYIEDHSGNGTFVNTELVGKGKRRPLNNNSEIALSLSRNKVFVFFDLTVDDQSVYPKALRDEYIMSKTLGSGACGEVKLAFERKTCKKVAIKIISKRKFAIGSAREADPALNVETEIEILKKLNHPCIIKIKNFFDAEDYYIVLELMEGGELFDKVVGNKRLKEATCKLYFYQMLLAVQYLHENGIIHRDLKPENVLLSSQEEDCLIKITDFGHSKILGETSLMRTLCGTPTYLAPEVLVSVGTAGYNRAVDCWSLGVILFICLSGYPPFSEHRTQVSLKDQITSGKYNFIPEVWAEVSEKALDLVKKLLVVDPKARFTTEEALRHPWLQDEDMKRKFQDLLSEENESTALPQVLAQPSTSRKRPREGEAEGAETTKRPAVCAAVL

[11] = biological target: Receptor tyrosine-protein kinase erbB-2 (Homo sapiens) (UniProt P04626); assay: Inhibition of ERBB2 (unknown origin) assessed as remaining activity at 1 uM by Kinome scan method relative to control
[12] = biological target: T1, Serine/threonine-protein kinase D3 (Homo sapiens) (UniProt O94806); assay: Inhibition of human PKCnu assessed as residual activity at 1 uM using bio-4xCHKT as substrate in presence of 33P-ATP by ProQinase assay relative to control
T1 sequence (whole entry): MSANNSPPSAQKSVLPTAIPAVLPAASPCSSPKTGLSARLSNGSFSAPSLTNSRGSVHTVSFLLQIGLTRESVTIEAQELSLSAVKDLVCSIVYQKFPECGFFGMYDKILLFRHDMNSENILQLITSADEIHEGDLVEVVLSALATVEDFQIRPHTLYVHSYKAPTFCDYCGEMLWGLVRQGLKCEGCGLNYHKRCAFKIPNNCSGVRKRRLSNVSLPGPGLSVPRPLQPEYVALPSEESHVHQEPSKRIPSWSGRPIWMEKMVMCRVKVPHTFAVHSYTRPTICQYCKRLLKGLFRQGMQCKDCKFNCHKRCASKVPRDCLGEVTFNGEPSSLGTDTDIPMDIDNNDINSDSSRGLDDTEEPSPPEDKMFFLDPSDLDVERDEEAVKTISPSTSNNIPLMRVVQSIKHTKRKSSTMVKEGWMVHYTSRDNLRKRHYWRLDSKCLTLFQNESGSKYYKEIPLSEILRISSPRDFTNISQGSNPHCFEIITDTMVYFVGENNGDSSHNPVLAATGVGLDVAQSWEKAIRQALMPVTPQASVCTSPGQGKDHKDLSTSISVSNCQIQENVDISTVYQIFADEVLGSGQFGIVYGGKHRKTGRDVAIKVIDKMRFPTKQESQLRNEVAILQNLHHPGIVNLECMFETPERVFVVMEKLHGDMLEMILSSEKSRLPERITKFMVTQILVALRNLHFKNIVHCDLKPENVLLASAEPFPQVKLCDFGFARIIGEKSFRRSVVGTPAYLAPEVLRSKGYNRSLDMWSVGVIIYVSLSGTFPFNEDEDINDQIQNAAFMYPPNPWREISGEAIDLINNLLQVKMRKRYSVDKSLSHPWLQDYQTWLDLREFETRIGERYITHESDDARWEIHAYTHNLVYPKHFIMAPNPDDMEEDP

[13] = biological target: High affinity nerve growth factor receptor (Homo sapiens) (UniProt P04629); assay: Inhibition of TRKA (unknown origin) assessed as remaining activity at 1 uM by Kinome scan method relative to control
High affinity nerve growth factor receptor (Homo sapiens), sequence (P04629 33-796 limits assumed): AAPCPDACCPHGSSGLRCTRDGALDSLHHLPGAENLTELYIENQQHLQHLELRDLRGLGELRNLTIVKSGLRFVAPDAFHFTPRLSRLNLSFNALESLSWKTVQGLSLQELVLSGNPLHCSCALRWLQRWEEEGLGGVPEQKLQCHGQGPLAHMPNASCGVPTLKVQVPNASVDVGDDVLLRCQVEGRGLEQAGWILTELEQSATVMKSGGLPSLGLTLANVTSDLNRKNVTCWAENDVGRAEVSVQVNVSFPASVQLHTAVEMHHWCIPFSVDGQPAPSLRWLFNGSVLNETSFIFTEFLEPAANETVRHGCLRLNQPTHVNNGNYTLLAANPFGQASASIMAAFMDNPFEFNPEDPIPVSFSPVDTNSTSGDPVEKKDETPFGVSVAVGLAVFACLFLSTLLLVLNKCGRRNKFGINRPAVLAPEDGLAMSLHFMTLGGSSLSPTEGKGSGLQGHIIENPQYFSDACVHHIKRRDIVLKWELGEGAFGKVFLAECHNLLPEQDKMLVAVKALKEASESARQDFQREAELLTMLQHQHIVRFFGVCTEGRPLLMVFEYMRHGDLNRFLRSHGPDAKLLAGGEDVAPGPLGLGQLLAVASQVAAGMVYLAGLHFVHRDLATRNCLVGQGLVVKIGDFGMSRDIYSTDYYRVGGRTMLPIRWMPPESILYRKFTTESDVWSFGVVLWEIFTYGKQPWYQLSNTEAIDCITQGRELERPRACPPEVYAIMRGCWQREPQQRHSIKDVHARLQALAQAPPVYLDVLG

[14] = biological target: T2, MAP/microtubule affinity-regulating kinase 4 (Homo sapiens) (UniProt Q96L34); assay: Inhibition of human MARK4 assessed as residual activity at 1 uM using RBER-CHKtide as substrate in presence of 33P-ATP by ProQinase assay relative to control
T2 sequence (whole entry): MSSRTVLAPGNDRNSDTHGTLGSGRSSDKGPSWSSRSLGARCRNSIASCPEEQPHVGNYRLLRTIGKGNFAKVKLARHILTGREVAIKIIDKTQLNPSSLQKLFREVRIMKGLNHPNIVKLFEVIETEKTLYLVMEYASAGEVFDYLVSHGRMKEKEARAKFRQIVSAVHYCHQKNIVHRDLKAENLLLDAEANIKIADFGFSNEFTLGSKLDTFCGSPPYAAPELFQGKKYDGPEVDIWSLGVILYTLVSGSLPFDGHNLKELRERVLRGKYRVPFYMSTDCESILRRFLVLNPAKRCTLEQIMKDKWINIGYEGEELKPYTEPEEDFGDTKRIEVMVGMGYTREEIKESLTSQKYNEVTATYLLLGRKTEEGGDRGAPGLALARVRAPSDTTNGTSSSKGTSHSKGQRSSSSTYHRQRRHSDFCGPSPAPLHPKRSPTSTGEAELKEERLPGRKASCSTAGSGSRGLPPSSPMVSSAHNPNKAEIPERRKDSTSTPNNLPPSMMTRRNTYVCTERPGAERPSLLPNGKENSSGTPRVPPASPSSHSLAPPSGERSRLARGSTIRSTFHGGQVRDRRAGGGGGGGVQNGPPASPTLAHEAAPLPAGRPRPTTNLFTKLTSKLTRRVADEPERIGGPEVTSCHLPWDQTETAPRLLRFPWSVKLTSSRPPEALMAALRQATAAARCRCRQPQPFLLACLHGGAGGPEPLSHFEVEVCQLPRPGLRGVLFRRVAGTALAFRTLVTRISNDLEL

Protein kinase C iota type (Homo sapiens), sequence (P41743 whole entry): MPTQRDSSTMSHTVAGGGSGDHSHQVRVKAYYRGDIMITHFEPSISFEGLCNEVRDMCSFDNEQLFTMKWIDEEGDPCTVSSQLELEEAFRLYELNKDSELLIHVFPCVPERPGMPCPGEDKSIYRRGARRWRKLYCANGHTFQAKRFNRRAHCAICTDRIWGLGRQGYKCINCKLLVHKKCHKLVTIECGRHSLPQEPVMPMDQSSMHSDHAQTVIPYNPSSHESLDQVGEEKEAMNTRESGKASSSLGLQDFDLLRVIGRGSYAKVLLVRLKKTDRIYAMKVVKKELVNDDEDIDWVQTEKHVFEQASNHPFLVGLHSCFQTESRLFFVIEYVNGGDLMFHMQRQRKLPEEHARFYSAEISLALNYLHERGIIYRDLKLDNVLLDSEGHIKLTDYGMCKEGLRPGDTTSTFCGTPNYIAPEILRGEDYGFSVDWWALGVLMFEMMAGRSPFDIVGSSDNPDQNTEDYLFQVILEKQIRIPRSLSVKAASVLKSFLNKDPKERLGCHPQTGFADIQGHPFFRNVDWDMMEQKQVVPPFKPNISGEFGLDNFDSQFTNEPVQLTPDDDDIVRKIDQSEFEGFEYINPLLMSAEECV

O=C1c2ccc(Nc3ccc(F)cc3F)cc2CCc2ccc(OC[C@H](O)CO)cc21 [Skepinone-L]
Activity [1]: 91%
Activity [2]: 77%
Activity [3]: 105%
Activity [4]: 86%
Activity [5]: 90%
Activity [6]: 95%
Activity [7]: 100%
Activity [8]: 91%
Activity [9]: 53%
Activity [10]: 89%
Activity [11]: 100%
Activity [12]: 92%
Activity [13]: 88%
Activity [14]: 96%
